According to US20260232578A1, “COMPOSITIONS AND METHODS FOR TRANSMUCOSAL ABSORPTION” (Tonix Pharma Limited, priority 2012, published 2026):

Key:
muscarinic M2 receptor = muscarinic M2 receptor (Homo sapiens, UniProt P08172); experiment: Equilibrium receptor binding, recombinant human receptor; set-up: expressed in transfected cells
in vivo = conditions: female, beagle, dog; for AUC(0-t) / AUC(0-inf): 1.79 mg; for AUC(0-t): AUC0-24 h; for AUC(0-inf): AUC0-∞h
Experimental: The protocol was designed as outlined in Table 23.
The method requires a lithium heparinized plasma sample volume of 200 μl. The extraction is a liquid liquid extraction with hexane, and the extracts are injected using an HPLC system and an […] (Applied Biosystems) for the MS/MS detection, with a “Onyx monolithic Phenomenex C18 100×3.0 mm” column.
Concentrations of the samples are calculated using Watson® 7.2.0.03 directly from chromatograms after automatic integration by Analyst® 1.5.1 and expressed as ng/mL. Mean plasma concentrations will be calculated (when calculable, i.e. n>2) using individual concentrations and will be expressed with the corresponding standard deviation value and variation coefficients (when calculable, i.e. n>3) (with CV(%)=(SD/mean)×100). The individual plasma concentrations are tabulated for each dog and scheduled sampling time. Concentrations below the LLOQ are designated as “BLQ.” All BLQ concentrations are substituted by zero for calculation of the descriptive statistics of the concentrations.
Pharmacokinetic analysis is carried out using […]® (Version 4.3 (Thermo Electron Corporation)). An independent model (non compartmental analysis) is used. All BLQ values in the absorption phase are substituted by zero, except for BLQ values between evaluable concentrations, which are treated as missing values, before the calculation of the pharmacokinetic variables. The terminal BLQ values are ignored. The following pharmacokinetic parameters are calculated:
5 non-naive female dogs are used, each dog receiving the test substance by oral administration via nasogastric tube to the stomach (NG) administration, sublingual administration (SL), and by intravenous (IV) administration. There is a “wash-out” period of at least two weeks between each type of administration. Blood samples are drawn as follows:
A single NG dose of 0.14 mg/kg (under a volume of 5 ml/kg and a solution concentration of 0.028 mg/mL) is administered.
After a wash-out period of at least 2 weeks, dogs are sedated using propofol (6.5 mg/kg IV). They will be then given a single sublingual dose of 0.14 mg/kg (under a volume of 0.056 mL/kg and a solution concentration of 2.5 mg/mL).
After a wash-out period of at least 2 weeks, dogs are given a single IV dose of 0.14 mg/kg (under a volume of 1 mL/kg, bolus of approximately 30 sec, and a solution concentration of 0.14 mg/mL).
Blood sampling was designed to minimize animal suffering and to ensure the quality of the biological samples, and was adapted from basic procedures commonly used in studies performed in dogs. Serial blood samples (1 tube of approximately 5 mL) are collected from a jugular vein using vacuum tubes containing lithium heparin. After sealing each tube, the blood samples are manually agitated and stored on ice until centrifugation (within 30 minutes of sampling). The samples are centrifuged at 1500 g, at 4° C., for 10 minutes. The entire resultant plasma obtained from each tube is immediately transferred to suitably labeled polypropylene tubes (3 aliquots of plasma of at least 500 μl each), which are stored upright at approximately −80° C. and protected from light until bioanalysis.
The dogs are fasted overnight before each administration, and food is given to the dogs 4 hours after each treatment. […] In each of the three routes, a potassium phosphate buffer (pH 7.4) is used as the vehicle.
As referred to in Example 4, a study was designed in order to assess the effects of the compositions and methods of the invention. […] The pharmacokinetic parameters were then calculated. A summary of the study design is as follows:
Blood was collected in a fasted condition for all three routes of administration. […] Briefly, the method involved liquid-liquid extraction with hexane. The extracts were injected using an HPLC system and an API4000® (Applied Biosystems) for the MS/MS detection, with an “Onyx monolithic Phenomenex C18 100×3.0 mm” column.

Chain of muscarinic M2 receptor (P08172 whole entry): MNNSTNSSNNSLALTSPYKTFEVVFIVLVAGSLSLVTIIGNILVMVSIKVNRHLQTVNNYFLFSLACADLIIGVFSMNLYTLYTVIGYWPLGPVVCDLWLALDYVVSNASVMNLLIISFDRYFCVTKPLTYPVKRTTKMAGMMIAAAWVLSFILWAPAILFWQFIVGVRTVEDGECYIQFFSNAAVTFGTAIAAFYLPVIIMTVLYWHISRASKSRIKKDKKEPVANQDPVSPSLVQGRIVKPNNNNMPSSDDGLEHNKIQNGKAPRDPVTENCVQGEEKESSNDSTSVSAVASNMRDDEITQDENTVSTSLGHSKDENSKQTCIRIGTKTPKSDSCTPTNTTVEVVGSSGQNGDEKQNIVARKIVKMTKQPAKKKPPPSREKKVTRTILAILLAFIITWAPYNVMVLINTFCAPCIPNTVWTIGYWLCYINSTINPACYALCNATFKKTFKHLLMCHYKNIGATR

SMILES	Ki (muscarinic M2 receptor) [nM]	increase in bioavailability, sublingual vs PO (in vivo) [fold]	AUC(0-t) (in vivo) [ng·h/mL]	AUC(0-inf) (in vivo) [ng·h/mL]	bioavailability (in vivo; bioavailability, conclusion) [%]	concentration at 0.5 h (in vivo; iv, 0.14 mg/kg, plasma level) [ng/mL]	concentration at 6 h (in vivo; iv, 0.14 mg/kg, plasma level) [ng/mL]	AUC(0-t) (in vivo; iv) [ng·h/mL]	AUC(0-inf) (in vivo; iv) [ng·h/mL]
CNCCC=C1c2ccccc2C=Cc2ccccc21 [norcyclobenzaprine, 3-(5H-dibenzo[a,d]cyclohepten-5-ylidene)-N-methyl-1-propanamine]	76	–	–	–	–	–	–	–	–
CN(C)CCC=C1c2ccccc2C=Cc2ccccc21 [cyclobenzaprine, 3-(5H-dibenzo[a,d]cyclohepten-5-ylidene)-N,N-dimethyl-1-propanamine]	–	~77	127 ± 37.1	129 ± 36.4	~100	52.3	3.4	43.5 ± 3.77	44.9 ± 4.15
